Assay: Magnitude of colour change (light absorbance) dry vs damp for colour-formers dip-coated on MDI and TDI HPU foam (Example 25)
Details: for Enhancement: light absorbance damp versus dry
Procedure: A range of colour-formers were dip-coated onto MDI- and TDI-based HPU foams using the following method:
A solution of colour-former in acetone (5 mg/ml) was prepared. A 20×20×5 mm square sample of a TDI-based or MDI-based HPU foam was fully immersed in the colour-former solution (20 ml), taking care to avoid air-locking within the foam. The sample was immediately removed from the solution and excess solution removed with light squeezing followed by hand compression between layers of absorbent tissue.
The sample was oven dried at 70° C. for 10 minutes, resulting in an off-white sample in all cases.
The light absorbance of the resulting samples was recorded in the dry state at the wavelength of maximum light absorbance (when moistened). Each sample was individually fully wet out in deionised water and dried to dampness between absorbent tissue prior to immediate determination of light absorbance at the aforementioned wavelength.

Enhancement (MDI HPU foam)	Enhancement (TDI HPU foam)	suitability to function as colour-forming indicator (on MDI or TDI HPU foams at the loading concentrations employed, damp absorbance versus 0.1 absorbance unit visibility limit)	Compound
13.4	14.8		CN(C)c1ccc(C2(c3ccc(N(C)C)cc3)OC(=O)c3cc(N(C)C)ccc32)cc1 [Crystal Violet Lactone, crystal violet lactone]
1.1	0.7	not well-suited	CCN(CC)c1ccc(-c2nc(Oc3ccc(C(C)(C)c4ccc(Oc5nc(-c6ccc(N(CC)CC)cc6)nc6ccccc56)cc4)cc3)c3ccccc3n2)cc1 [Pergascript Yellow I 3R, 4,4′-[(1-methylethylidene)bis(4,1-phenyleneoxy-4,2-quinazolinediyl)]bis[N,N-diethyl]benzamine]
5.7	7.0		CCN(CC)c1ccc2c(c1)Oc1ccc(N(Cc3ccccc3)Cc3ccccc3)cc1C21OC(=O)c2ccccc21 (stereo not drawn) [WinCon Green, 2-dibenzylamino-6-diethylaminofluoran]
6.2	6.8		CCN(CC)c1ccc2c(c1)Oc1cc(C)c(Nc3ccccc3)cc1C21OC(=O)c2ccccc21 (stereo not drawn) [WinCon-1, 6-diethylamino-3-methyl-2-phenylaminofluoran]
5.7	8.1		CCCCN(CCCC)c1ccc2c(c1)Oc1cc(C)c(Nc3ccccc3)cc1C21OC(=O)c2ccccc21 (stereo not drawn) [WinCon-2, 6-dibutylamino-3-methyl-2-phenylaminofluoran]
6.8	9.3		CCN(CC)c1ccc2c(c1)Oc1cc(C)c(Nc3ccc(C)cc3C)cc1C21OC(=O)c2ccccc21 (stereo not drawn) [WinCon-15, 2-(2,4-dimethylphenylamino)-3-methyl-6-diethylaminofluoran]
6.3	10.3		CCN(CCC(C)C)c1ccc2c(c1)Oc1cc(C)c(Nc3ccccc3)cc1C21OC(=O)c2ccccc21 (stereo not drawn) [WinCon-205, 6-(N-ethyl, N-isopentylamino)-3-methyl-2-phenylaminofluoran]
